Values after ≈ are worked out from the molar mass of the structure shown. Where two headings read alike, the source gives them in different places.
Tests used:
Experiment in all cases: MIC (minimum inhibitory concentration)
Format in all cases: cell-based
[1] = tested on: Staphylococcus aureus ATCC 6538P; settings: ATCC6538P
[2] = tested on: Staphylococcus aureus MS353
[3] = tested on: Staphylococcus aureus MS353 C36; settings: MS353C36
[4] = tested on: Staphylococcus aureus MS353 A0*; settings: * clinical isolate, macrolide-resistant bacteria A group
[5] = tested on: Staphylococcus aureus 0119*; settings: Staphylococcus aureus
[6] = tested on: Staphylococcus aureus 0127*; settings: Staphylococcus aureus
[7] = tested on: Staphylococcus epidermidis sp-al-1; settings: SPAL1
[8] = tested on: Streptococcus pyogenes N.Y.5
[9] = tested on: Streptococcus pyogenes 1022*; settings: Streptococcus pyogenes
[10] = tested on: Streptococcus faecalis 1501; settings: Enterococcus faecalis
[11] = tested on: Streptococcus agalaactiae 1020
Sarcina lutea ATCC 9341 = settings: Micrococcus luteus, ATCC9341; Sarcina lutea ATCC 9341; read-out: MIC
[12] = tested on: Micrococcus flavus ATCC 10240; settings: ATCC10240
[13] = tested on: Corynebacterium diphtheriae P.Y.8
[14] = tested on: Bacillus subtilis ATCC 6633; settings: ATCC6633
[15] = tested on: Escherichia coli NIHJ-JC2; settings: NIHJJC2
Escherichia coli B = tested on: Escherichia coli B
[16] = tested on: Klebsiella pneumoniae ATCC 10031; settings: ATCC10031
Salmonella typhosa H901 = settings: Salmonella enterica, TYPHOSA
[17] = tested on: Salmonella enteritidis Gaertner; settings: Salmonella enterica
[18] = tested on: Shigella flexineri type 3a; settings: TYPE3A
Shigella sonnei E33 = tested on: Shigella sonnei E33
Proteus vulgaris OX19 = tested on: Proteus vulgaris OX19
Serratia marcescens = tested on: Serratia marcescens
[19] = tested on: Pseudomonas aeruginosa IAM 1095; settings: IAM1095
[20] = Escherichia coli NIHJ-JC2, read-out: MIC
[21] = Escherichia coli B, read-out: MIC

SMILES | MIC [1] [µg/mL] | MIC [2] [µg/mL] | MIC [3] [µg/mL] | MIC [4] [µg/mL] | MIC [5] [µg/mL] | MIC [6] [µg/mL] | MIC ([7]; Staphylococcus epidermidis) [µg/mL] | MIC [8] [µg/mL] | MIC [9] [µg/mL] | MIC [10]; 1501 [µg/mL] | MIC ([11]; Streptococcus, 1020) [µg/mL] | MIC (Sarcina lutea ATCC 9341) [µg/mL] | MIC ([12]; Micrococcus flavus) [µg/mL] | MIC [13] [µg/mL] | MIC ([14]; Bacillus subtilis) [µg/mL] | MIC [15, 20] [µg/mL] | MIC (Escherichia coli B; [21]) [µg/mL] | MIC (Salmonella typhosa H901) [µg/mL] | MIC [18] [µg/mL] | MIC (Shigella sonnei E33) [µg/mL] | other results
CC[C@H]1OC(=O)[C@H](C)[C@@H](O[C@H]2C[C@@](C)(OC)[C@@H](O)[C@H](C)O2)[C@H](C)[C@@H](O[C@@H]2O[C@H](C)C[C@H](N(C)C)[C@H]2O)[C@](C)(O)C[C@@H](C)C(=O)[C@H](C)[C@@H](O)[C@]1(C)O [Erythromycin, reference compound] | 0.2 (≈ 0.273 µM) | 0.2 (≈ 0.273 µM) | > 100 | > 100 | > 100 | > 100 | 0.2 (≈ 0.273 µM) | ≤ 0.05 | > 100 | 0.2 (≈ 0.273 µM) | ≤ 0.05 | ≤ 0.05 | 0.1 (≈ 0.136 µM) | ≤ 0.05 | 0.1 (≈ 0.136 µM) | 100 (≈ 136 µM) | > 100 | 100 (≈ 136 µM) | 12.5 (≈ 17 µM) | 100 (≈ 136 µM) | MIC ([16]; Klebsiella pneumoniae): 6.3 µg/mL (≈ 8.58 µM); MIC ([17]; ENTERITIDIS): 100 µg/mL (≈ 136 µM); MIC (Proteus vulgaris OX19): 50 µg/mL (≈ 68.1 µM); MIC (Serratia marcescens): 100 µg/mL (≈ 136 µM); MIC ([19]; Pseudomonas aeruginosa): 100 µg/mL (≈ 136 µM)
CCC1OC(=O)CC(OC(=O)CC(C)C)C(C)C(OC2OC(C)C(O)C(N(C)C)C2O)C(CC=O)CC(C)C(=O)C=CC(C)=CC1COC1OC(C)CC(OC)C1OC (centres unmarked) [Example 4, 3-O-isovaleryl-4"-deoxydesmycosin] | 0.4 (≈ 0.476 µM) | 0.4 (≈ 0.476 µM) | 0.4 (≈ 0.476 µM) | > 100 | > 100 | > 100 | – | ≤ 0.05 | > 100 | – | – | ≤ 0.05 | – | – | – | > 100 | > 100 | > 100 | 50 (≈ 59.5 µM) | > 100 | MIC ([7]; Staphylococcus epidermidis sp-al-1, read-out: MIC): 0.1 µg/mL (≈ 0.119 µM); MIC ([10]; Streptococcus faecalis 1501, read-out: MIC): 0.4 µg/mL (≈ 0.476 µM); MIC ([11]; Streptococcus agalaactiae 1020, read-out: MIC): ≤ 0.05 µg/mL; MIC ([12]; Micrococcus flavus ATCC 10240, read-out: MIC): ≤ 0.05 µg/mL; MIC ([13]; read-out: MIC): ≤ 0.05 µg/mL; MIC ([14]; Bacillus subtilis ATCC 6633, read-out: MIC): 0.2 µg/mL (≈ 0.238 µM); MIC ([16]; Klebsiella pneumoniae ATCC 10031, read-out: MIC): 25 µg/mL (≈ 29.8 µM); MIC ([17]; Salmonella enteritidis Gaertner, read-out: MIC): > 100 µg/mL; MIC (Proteus vulgaris OX19; read-out: MIC): 50 µg/mL (≈ 59.5 µM); MIC (Serratia marcescens; read-out: MIC): > 100 µg/mL; MIC ([19]; Pseudomonas aeruginosa IAM 1095, read-out: MIC): > 100 µg/mL
CC[C@H]1OC(=O)C[C@@H](O)[C@H](C)[C@@H](O[C@@H]2O[C@H](C)[C@@H](O[C@H]3C[C@@](C)(O)[C@@H](O)[C@H](C)O3)[C@H](N(C)C)[C@H]2O)[C@@H](CC=O)C[C@@H](C)C(=O)/C=C/C(C)=C/[C@@H]1CO[C@@H]1O[C@H](C)[C@@H](O)[C@@H](OC)[C@H]1OC [Tylosin, reference compound] | – | 0.8 (≈ 0.873 µM) | 0.4 (≈ 0.437 µM) | > 100 | > 100 | > 100 | 0.4 (≈ 0.437 µM) | 0.1 (≈ 0.109 µM) | > 100 | 0.8 (≈ 0.873 µM) | 0.2 (≈ 0.218 µM) | ≤ 0.05 | ≤ 0.05 | ≤ 0.05 | 0.2 (≈ 0.218 µM) | – | – | > 100 | 50 (≈ 54.6 µM) | > 100 | MIC ([15]; Escherichia coli): > 100 µg/mL; MIC (Escherichia coli B; Escherichia coli): > 100 µg/mL; MIC ([16]; Klebsiella pneumoniae): 50 µg/mL (≈ 54.6 µM); MIC ([17]; ENTERITIDIS): > 100 µg/mL; MIC (Proteus vulgaris OX19): > 100 µg/mL; MIC (Serratia marcescens): > 100 µg/mL; MIC ([19]; Pseudomonas aeruginosa): > 100 µg/mL

Source: patent US4652638A, “3-O-acyl-4"-deoxydesmycosin derivatives” (Toyo Jozo Kabushiki Kaisha, priority 1983, dated 1987)
